# Marks after values point to notes of the source that are not given here.
# System: chicken embryos
# Experiment: Metabolic profiling of blood plasma (GC-MS, LC-MS, OPLS-DA)
# Type: in vivo, Gallus gallus domesticus
# Description: Controls were injected with 20 μL vehicle only (DMSO).
# Plasma was collected and stored at -70°C.
# Metabolites in allantoic fluid and blood plasma were analyzed using gas chromatography-mass spectrometry (GC-MS) and liquid chromatography-mass spectrometry (LC-MS) as described in S1 Methods. Prior to GC-MS and LC-MS analysis, allantoic fluid (100 μL) and blood plasma (50 μL) were extracted. To each sample, 900 μL (allantoic fluid) or 450 μL (blood plasma) of extraction buffer (90/10 v/v methanol:water) including all internal standards were added. Standards for GC-MS were proline, succinic acid, glutamic acid, salicylic acid, alpha-ketoglutarate, putrescine, myristic acid, hexadecanoic acid, cholesterol, and sucrose. Standards for LC-MS were Val-Tyr-Val, Leu-enkephalin, sulfadimethoxine and reserpine. Samples were homogenized by shaking in a bead mill at a frequency of 30 Hz for 3 minutes and proteins were precipitated at +4°C on ice. The samples were centrifuged at +4°C, 14000 rpm, for 10 min. Then, 200 μL supernatant was transferred to a GC microvial and 200 μL was transferred to an LC microvial, and solvents were evaporated. Samples from the four replicate experiments were analyzed using in chronological order and within each replicate experiment the run order of the individual samples was randomized.
# Multivariate statistical analyses of metabolite profiles were performed using the software package SIMCA-P version 13.0 (Umetrics, Umeå, Sweden). Data was centered and scaled to variance 1 (UV scaling) prior to modelling. To reduce unintended systematic variation caused by sample processing and instrument drift, GC-MS and LC-MS metabolite amounts (expressed as the area under the chromatographic peak) were normalized by Orthogonal Partial Least Squares analysis (O2PLS) prior to multivariate data analysis. O2PLS finds common (predictive) and unique (orthogonal) variation in two data matrices. If applied to find the common variation between the data matrix containing the measured metabolite concentrations and a matrix containing only the internal standards, the only common (predictive) variation expected is due to the unintended systematic variation. By deleting the contribution of the predictive latent variables, that variation can be removed from the data. Models obtained after this normalization contain in general less latent variables, and this simplification helps when deciding on the number of latent variables to be used. Following normalization, GC-MS and LC-MS data were analyzed together. Initially, a global Principal Component Analysis (PCA) was performed to get an overview of groups and trends and to identify outliers. Projections to latent structures by means of Orthogonal Partial Least Squares Discriminant Analysis (OPLS-DA) was used to model the relationship between the X-matrix (metabolite concentrations) and the Y matrix (class, i.e. exposure group or sex), and to find x-variables that were related to class belonging. OPLS-DA is a supervised prediction and regression method that rotates the projection plane to find the maximum covariance between the data and the class assignment. All groups were first analyzed together in a 5-class OPLS-DA and then each exposure group was analyzed against the control group in a 2-class OPLS-DA. Sex differences were analyzed both using the whole data set and in each group separately using 2-class OPLS-DA, with females and males as the two classes. Only variables with 80% or more nonzero values were included in the statistical models. […] The validity of each model was also checked using CV-ANOVA (ANOVA of the cross-validated residuals). A significance level of p < 0.05 was used. For each model, R ^2 X, R ^2 Y and Q ^2 values were calculated, where R ^2 X is a measure of the fraction of x variation modeled in the extracted latent variables, R ^2 Y is a measure of the fraction of y variation modeled and Q ^2 is an estimate of the predictive ability of the model and is calculated by cross-validation. […]
compound,measurement,setting,value
"CN(CCOc1ccc(CC2SC(=O)NC2=O)cc1)c1ccccn1 (centres unmarked) [Rosiglitazone, rosiglitazone, reference compound]","Mean concentration relative to control, feature Win006_C03",GC,1.2*
same,"Mean concentration relative to control, feature Win011_C02 (Isoleucine)",GC,1.1
same,"Mean concentration relative to control, feature Win027_C13",GC,0.9
same,"Mean concentration relative to control, feature Win031_C03 (Citric acid)",GC,1
same,"Mean concentration relative to control, feature Win034_C08 (Tyrosine)",GC,1
same,"Mean concentration relative to control, feature Win034_C09 (Tyrosine)",GC,1.1
same,"Mean concentration relative to control, feature Win039_C07",GC,1.2
same,"Mean concentration relative to control, feature Win043_C02 (Cystathionine)",GC,1
same,"Mean concentration relative to control, feature Win061_C01",GC,0.9
same,"Mean concentration relative to control, feature Win066_C03",GC,1
same,"Mean concentration relative to control, feature Win088_C02",GC,1
same,"Mean concentration relative to control, feature 118.0284@2.480333 (C4H6O4)",LC,0.8**
same,"Mean concentration relative to control, feature 122.0486@0.675613",LC,1
same,"Mean concentration relative to control, feature 126.0428@1.2278157 (Thymine)",LC,1.0
same,"Mean concentration relative to control, feature 146.0362@0.7772238",LC,1.1
same,"Mean concentration relative to control, feature 159.0686@1.1608156",LC,1.1
same,"Mean concentration relative to control, feature 164.0449@0.7694838",LC,1.1
same,"Mean concentration relative to control, feature 202.1024@5.0303197 (C8H14N2O4)",LC,1.1
same,"Mean concentration relative to control, feature 203.1162@0.5130696",LC,1
same,"Mean concentration relative to control, feature 213.2458@7.4887733",LC,1
same,"Mean concentration relative to control, feature 215.047@1.6260729 (C5H14NO6P)",LC,0.9*
same,"Mean concentration relative to control, feature 226.0721@1.9460537",LC,1
same,"Mean concentration relative to control, feature 231.0174@1.6241412",LC,0.8*
same,"Mean concentration relative to control, feature 233.1265@2.535991",LC,1
same,"Mean concentration relative to control, feature 250.1317@2.1334834",LC,1.2
same,"Mean concentration relative to control, feature 260.0508@0.69984084",LC,0.8*
same,"Mean concentration relative to control, feature 276.0173@1.6283482",LC,0.9
same,"Mean concentration relative to control, feature 278.0939@1.3354088",LC,0.9
same,"Mean concentration relative to control, feature 293.0903@1.5739433",LC,1
same,"Mean concentration relative to control, feature 307.2147@7.5065937 (C18H29NO3)",LC,0.9
same,"Mean concentration relative to control, feature 310.178@7.5343466",LC,1
same,"Mean concentration relative to control, feature 339.3861@9.528681",LC,1.2
same,"Mean concentration relative to control, feature 342.2883@7.526812",LC,1
same,"Mean concentration relative to control, feature 348.0675@1.5761927",LC,1
same,"Mean concentration relative to control, feature 355.9454@0.68034226",LC,1
same,"Mean concentration relative to control, feature 362.1467@0.8461036",LC,1.1
same,"Mean concentration relative to control, feature 366.1431@1.4228548",LC,0.9*
same,"Mean concentration relative to control, feature 373.296@9.044806",LC,1
same,"Mean concentration relative to control, feature 375.3108@8.995564",LC,1
same,"Mean concentration relative to control, feature 389.2686@9.046645",LC,1
same,"Mean concentration relative to control, feature 407.0999@1.585909",LC,0.9*
same,"Mean concentration relative to control, feature 412.135@2.4779084 (C17H24N4O6S)",LC,0.8**
same,"Mean concentration relative to control, feature 444.3607@10.33052",LC,0.9
same,"Mean concentration relative to control, feature 471.9819@0.685074",LC,1
same,"Mean concentration relative to control, feature 489.1508@8.562614",LC,0.7*
same,"Mean concentration relative to control, feature 509.1184@2.4798179",LC,0.8**
same,"Mean concentration relative to control, feature 525.2855@8.361063",LC,0.9
same,"Mean concentration relative to control, feature 545.2492@8.463657",LC,0.9
same,"Mean concentration relative to control, feature 558.4095@9.459733",LC,1.2*
same,"Mean concentration relative to control, feature 565.1902@0.7699907",LC,1.1
same,"Mean concentration relative to control, feature 577.2747@9.25652",LC,1.1
same,"Mean concentration relative to control, feature 581.1643@0.77029324",LC,1.1
same,"Mean concentration relative to control, feature 634.2403@1.9467853",LC,1
same,"Mean concentration relative to control, feature 644.1614@0.7647065",LC,1.1
same,"Mean concentration relative to control, feature 659.5483@11.4915495",LC,1.0
same,"Mean concentration relative to control, feature 698.2598@1.3599721",LC,1.2*
same,"Mean concentration relative to control, feature 700.5514@10.765638",LC,1.1
same,"Mean concentration relative to control, feature 755.5465@10.73882",LC,1.4*
same,"Mean concentration relative to control, feature 827.5078@8.831237",LC,1
same,"Mean concentration relative to control, feature 875.4661@10.5661745",LC,1.0
same,"Mean concentration relative to control, feature 1262.4865@1.947075",LC,1
same,"Mean concentration relative to control, feature 1316.4163@1.9465046",LC,1.1*
same,"Mean concentration relative to control, feature 1591.051@5.0189176",LC,0.8**
same,"Mean concentration relative to control, feature 1591.388@5.0202384",LC,0.9*
same,"Mean concentration relative to control, feature 1591.7203@5.018071",LC,0.9*

# From article PMC4666608, “Metabolic Profiling of Chicken Embryos Exposed to Perfluorooctanoic Acid (PFOA) and Agonists to Peroxisome Proliferator-Activated Receptors” (PLoS ONE, 2015)
